Patent US20070066566A1, “19,23,24,25,26,27-Hexanor-1alpha-hydroxyvitamin D3” (Wisconsin Alumni Research Foundation, priority 2005, published 2007)

Legend:
[1] = target: T1, full-length recombinant rat vitamin D receptor (Rattus norvegicus, UniProt P13053); assay: Vitamin D receptor binding, competition with [3H]-1,25-(OH)2-D3; conditions: FIG. 1
T1 construct: Full-length recombinant rat receptor was expressed in E. coli BL21(DE3) Codon Plus RIL cells; His tag (C); made in house; host or cells: E. coli BL21(DE3) Codon Plus RIL
T1 sequence (P13053 1-423): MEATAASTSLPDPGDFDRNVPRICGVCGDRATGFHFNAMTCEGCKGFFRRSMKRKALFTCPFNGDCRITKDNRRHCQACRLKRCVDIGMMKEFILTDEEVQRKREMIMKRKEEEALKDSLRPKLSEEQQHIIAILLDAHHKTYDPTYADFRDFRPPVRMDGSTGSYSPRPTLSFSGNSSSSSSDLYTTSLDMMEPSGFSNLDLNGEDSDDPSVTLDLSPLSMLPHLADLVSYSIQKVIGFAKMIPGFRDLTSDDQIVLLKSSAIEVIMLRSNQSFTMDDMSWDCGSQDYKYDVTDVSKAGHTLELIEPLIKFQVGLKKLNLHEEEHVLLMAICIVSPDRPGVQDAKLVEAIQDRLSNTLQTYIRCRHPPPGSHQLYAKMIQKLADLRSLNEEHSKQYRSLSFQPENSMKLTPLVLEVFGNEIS
Excerpt: FIG. 1 is a graph comparing the relative activity of NP9 and 1,25(OH)2D3 to compete for binding with [^3H]-1,25-(OH)2-D3 to the full-length recombinant rat vitamin D receptor.
Full-length recombinant rat receptor was expressed in E. coli BL21(DE3) Codon Plus RIL cells and purified to homogeneity using two different column chromatography systems. The first system was a nickel affinity resin that utilizes the C-terminal histidine tag on this protein. The protein that eluted from this resin was further purified using ion exchange chromatography (S-Sepharose Fast Flow). Aliquots of the purified protein were quick frozen in liquid nitrogen and stored at −80° C. until use. For use in binding assays, the protein was diluted in TEDK50 (50 mM Tris, 1.5 mM EDTA, pH 7.4, 5 mM DTT, 150 mM KCl) with 0.1% Chaps detergent. […]
Unlabeled ligands were dissolved in ethanol and the concentrations were determined using UV spectrophotometry (1,25(OH)2D3: molar extinction coefficient=18,200 and λmax=265 nm). […]
Radiolabeled and unlabeled ligands were added to 100 mcl of the diluted protein at a final ethanol concentration of ≧10%, mixed and incubated overnight on ice to reach binding equilibrium. […] Total binding was determined from the tubes containing only radiolabeled ligand.

[2] = tested on: Human promyelocytic leukemia (HL60) cells; assay: HL-60 differentiation (nitro blue tetrazolium reduction); assay type: cell-based; conditions: FIG. 2
Method: FIG. 2 is a graph comparing the percent HL-60 cell differentiation as a function of the concentration of NP9 with that of 1,25(OH)2D3.
The study drugs were dissolved in ethanol and the concentrations determined using UV spectrophotometry. Serial dilutions were prepared so that a range of drug concentrations was tested without changing the final concentration of ethanol (≦0.2%) present in the cell cultures.
Human promyelocytic leukemia (HL60) cells were grown in RPMI-1640 medium containing 10% fetal bovine serum. The cells were incubated at 37° C. in the presence of 5% CO2.
HL60 cells were plated at 1.2×10^5 cells/mL. Eighteen hours after plating, cells in duplicate were treated with drug. Four days later, the cells were harvested and a nitro blue tetrazolium reduction assay was performed (Collins et al., 1979; J. Exp. Med. 149:969-974). The percentage of differentiated cells was determined by counting a total of 200 cells and recording the number that contain intracellular black-blue formazan deposits. Verification of differentiation to monocytic cells was determined by measuring phagocytic activity.

[3] = tested on: 24-hydroxylase (24Ohase) gene promoter; assay: In vitro transcription assay (luciferase reporter in ROS 17/2.8 cells); assay type: cell-based; conditions: 24Ohase promoter-luciferase, FIG. 3
Method: FIG. 3 is a graph comparing the in vitro transcription activity of NP9 with that of 1,25(OH)2D3.
Transcription activity was measured in ROS 17/2.8 (bone) cells that were stably transfected with a 24-hydroxylase (24Ohase) gene promoter upstream of a luciferase reporter gene (Arbour et al., 1998). Cells were given a range of doses. Sixteen hours after dosing the cells were harvested and luciferase activities were measured using a luminometer. RLU=relative luciferase units.
Antagonism was tested by adding a combination of 1,25(OH)2D3 and the compound in the same well keeping the final ethanol concentration the same.

[4] = tested on: Sprague-Dawley rats; assay: Bone calcium mobilization (serum calcium); assay type: in vivo, rat; conditions: four consecutive ip doses, FIG. 4B
Excerpt: (§1) FIGS. 4A and 4B are graphs comparing intestinal calcium transport (4A) and bone calcium mobilization (4B) of NP9 and 1,25(OH)2D3.
(§2) Male, weanling Sprague-Dawley rats were placed on Diet 11 (Suda et al. J. Nutr. 100:1049, 1970) (0.47% Ca) diet+vitamins AEK for one week followed by Diet 11 (0.02% Ca)+AEK for 3 weeks. The rats were then switched to a diet containing 0.47% Ca for one week followed by two weeks on a diet containing 0.02% Ca. Dose administration began during the last week on 0.02% calcium diet. Four consecutive ip doses were given approximately 24 hours apart. Twenty-four hours after the last dose, blood was collected from the severed neck and the concentration of serum calcium was determined as a measure of bone calcium mobilization. The first 10 cm of the intestine was also collected for intestinal calcium transport analysis using the everted gut sac method. Antagonism was tested by administering a combination of 1,25(OH)2D3 and the compound to the animal simultaneously.

[5] = tested on: Sprague-Dawley rats; assay: Intestinal calcium transport (everted gut sac method); assay type: in vivo, rat; conditions: four consecutive ip doses, FIG. 4A
Excerpt: as §1, §2

## CC(C)[C@H]1CC[C@H]2/C(=C/C=C3C[C@@H](O)C[C@H](O)C3)CCC[C@]12C [formula 1B, 19,23,24,25,26,27-Hexanor-1α-hydroxyvitamin D3]
[1]
  binding to the vitamin D receptor relative to 1,25-(OH)2D3: does not bind to the vitamin D receptor as strongly as the native hormone 1,25-(OH)2D3
[2]
  activity in inducing differentiation of HL-60 cells compared to 1,25-(OH)2D3: less but still significant activity compared to 1,25-(OH)2D3
[3]
  activity in causing transcription compared to 1,25-(OH)2D3: does not show as much activity in causing transcription as 1,25-(OH)2D3
[4]
  bone calcium mobilizing activity: no measurable bone calcium mobilizing activity
[5]
  intestinal calcium transport activity: no measurable
